Measurements as given in patent publication US20230146675A1, “PYRIMIDO[5,4-d]PYRIMIDINE DERIVATIVES AS ENT INHIBITORS FOR THE TREATMENT OF CANCERS, AND COMBINATION THEREOF WITH ADENOSINE RECEPTOR ANTAGONISTS” (ITEOS BELGIUM SA, priority 2020, published 2023).

The molecules below were run against T1, human ENT1 (Homo sapiens, UniProt Q99808) (assay: ENT1 binding assay (competition with Sahenta-DY647 on JAR cells)). Conditions: binned IC50.
T1 sequence (Q99808 1-456): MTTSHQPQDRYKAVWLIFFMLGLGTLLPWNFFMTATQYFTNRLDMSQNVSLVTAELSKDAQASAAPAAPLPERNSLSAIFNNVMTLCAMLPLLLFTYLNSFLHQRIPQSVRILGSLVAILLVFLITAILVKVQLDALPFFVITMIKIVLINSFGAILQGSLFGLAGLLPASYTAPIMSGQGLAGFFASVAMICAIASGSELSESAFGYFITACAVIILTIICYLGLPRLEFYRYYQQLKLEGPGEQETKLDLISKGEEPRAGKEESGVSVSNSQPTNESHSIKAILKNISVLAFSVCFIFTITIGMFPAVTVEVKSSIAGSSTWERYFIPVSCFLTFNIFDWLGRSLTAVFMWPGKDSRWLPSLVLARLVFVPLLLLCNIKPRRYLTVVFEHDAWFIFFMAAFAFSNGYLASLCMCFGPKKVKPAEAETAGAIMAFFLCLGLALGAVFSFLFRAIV
Set-up: JAR cells expressing ENT1 were bought from ATCC; host or cells: JAR cells
Outline: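 JAR cells were incubated with test compounds and the fluorescent ligand Sahenta-DY647 in competition. Plates were washed twice by centrifugation (4 min, 400 rcf, 4 °C). Binding potency was derived from the final fluorescence.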

Compound	IC50
COCCN(CCOC)c1nc(N2CCC(OC)CC2)c2nc(N(CCO)CCO)nc(N3CC(=O)N4CCCC4C3)c2n1 (stereo not drawn) [Compound 313, 2-(2-(bis(2-hydroxyethyl)amino)-6-(bis(2-methoxyethyl)amino)-8-(4-methoxypiperidin-1-yl)pyrimido[5,4-d]pyrimidin-4-yl)hexahydropyrrolo[1,2-a]pyrazin-4(1H)-one]	100 to 500 nM
COCCN(CCOC)c1nc(N2CC(=O)N3CCCC3C2)c2nc(N(CCO)CCO)nc(N3CCC(OC)CC3)c2n1 (stereo not drawn) [Compound 314, 2-(6-(bis(2-hydroxyethyl)amino)-2-(bis(2-methoxyethyl)amino)-8-(4-methoxypiperidin-1-yl)pyrimido[5,4-d]pyrimidin-4-yl)hexahydropyrrolo[1,2-a]pyrazin-4(1H)-one]	500 to 1000 nM
COCCN(CCOC)c1nc(N2CCC(OC)CC2)c2nc(N(CCO)CCO)nc(N3CCN(C4CC4)C(=O)C3)c2n1 [Compound 315, 4-(2-(bis(2-hydroxyethyl)amino)-6-(bis(2-methoxyethyl)amino)-8-(4-methoxypiperidin-1-yl)pyrimido[5,4-d]pyrimidin-4-yl)-1-cyclopropylpiperazin-2-one]	500 to 1000 nM
COCCN(CCOC)c1nc(N2CCC(OC)CC2)c2nc(N(CCOC)CCOC)nc(N3CCCCC3)c2n1 [Compound 318, N2,N2,N6,N6-tetrakis(2-methoxyethyl)-4-(4-methoxypiperidin-1-yl)-8-(piperidin-1-yl)pyrimido[5,4-d]pyrimidine-2,6-diamine]	500 to 1000 nM
COCCN(CCOC)c1nc(N2CCN(C)C(=O)C2)c2nc(N(CCOC)CCOC)nc(N3CCCCC3)c2n1 [Compound 319, 4-(2,6-bis(bis(2-methoxyethyl)amino)-8-(piperidin-1-yl)pyrimido[5,4-d]pyrimidin-4-yl)-1-methylpiperazin-2-one]	100 to 500 nM
COCCN(CCOC)c1nc(N2CCC(OC)CC2)c2nc(N(CCO)CCO)nc(N3CCc4oc(C)nc4C3)c2n1 [Compound 322, 2,2′-((6-(bis(2-methoxyethyl)amino)-8-(4-methoxypiperidin-1-yl)-4-(2-methyl-6,7-dihydrooxazolo[4,5-c]pyridin-5(4H)-yl)pyrimido[5,4-d]pyrimidin-2-yl)azanediyl)bis(ethan-1-ol)]	100 to 500 nM
COCCN(CCOC)c1nc(NCc2cccc(C#N)c2)c2nc(N(CCO)CCO)nc(N3CCC(OC)CC3)c2n1 [Compound 325, 3-(((6-(bis(2-hydroxyethyl)amino)-2-(bis(2-methoxyethyl)amino)-8-(4-methoxypiperidin-1-yl)pyrimido[5,4-d]pyrimidin-4-yl)amino)methyl)benzonitrile]	< 100 nM
COCCN(CCOC)c1nc(N2CC(O)(C(F)(F)F)C2)c2nc(N(CCO)CCO)nc(N3CCC(OC)CC3)c2n1 [Compound 326, 2,2′-((6-(bis(2-methoxyethyl)amino)-8-(3-hydroxy-3-(trifluoromethyl)azetidin-1-yl)-4-(4-methoxypiperidin-1-yl)pyrimido[5,4-d]pyrimidin-2-yl)azanediyl)bis(ethan-1-ol)]	500 to 1000 nM
COCCCN(CCCOC)c1nc(N2CCC(OC)CC2)c2nc(N(CCCO)CCCO)nc(N3CCN(C)C(=O)C3)c2n1 [Compound 329, 4-(2-(bis(3-hydroxypropyl)amino)-6-(bis(3-methoxypropyl)amino)-8-(4-methoxypiperidin-1-yl)pyrimido[5,4-d]pyrimidin-4-yl)-1-methylpiperazin-2-one]	< 100 nM
COCCCN(CCCOC)c1nc(N2CCC(OC)CC2)c2nc(N(CCCO)CCCO)nc(N3CCC(OC)CC3)c2n1 [Compound 330, 3,3′-((6-(bis(3-methoxypropyl)amino)-4,8-bis(4-methoxypiperidin-1-yl)pyrimido[5,4-d]pyrimidin-2-yl)azanediyl)bis(propan-1-ol)]	100 to 500 nM
COCCN(Cc1ccc(C(=O)O)cc1)c1nc(N2CCN(C)C(=O)C2)c2nc(N(CCOC)CCOC)nc(N3CCC(OC)CC3)c2n1 [Compound 333, 4-(((6-(bis(2-methoxyethyl)amino)-8-(4-methoxypiperidin-1-yl)-4-(4-methyl-3-oxopiperazin-1-yl)pyrimido[5,4-d]pyrimidin-2-yl)(2-methoxyethyl)amino)methyl)benzoic acid]	500 to 1000 nM
COCCN(CCC(=O)NS(=O)(=O)N(C)C)c1nc(N2CCN(C)C(=O)C2)c2nc(N(CCOC)CCOC)nc(N3CCC(OC)CC3)c2n1 [Compound 334, 3-((6-(bis(2-methoxyethyl)amino)-8-(4-methoxypiperidin-1-yl)-4-(4-methyl-3-oxopiperazin-1-yl)pyrimido[5,4-d]pyrimidin-2-yl)(2-methoxyethyl)amino)-N-(N,N-dimethylsulfamoyl)propanamide]	500 to 1000 nM
COCCN(CCOC)c1nc(N2CCc3oc(C)nc3C2)c2nc(N(CCOC)Cc3ccc(C(=O)O)cc3)nc(N3CCN(C)C(=O)C3)c2n1 [Compound 335, 4-(((6-(bis(2-methoxyethyl)amino)-4-(4-methyl-3-oxopiperazin-1-yl)-8-(2-methyl-6,7-dihydrooxazolo[4,5-c]pyridin-5(4H)-yl)pyrimido[5,4-d]pyrimidin-2-yl)(2-methoxyethyl)amino)methyl)benzoic acid]	< 100 nM
COCCN(Cc1ccc(C(=O)O)c(F)c1)c1nc(N2CCN(C)C(=O)C2)c2nc(N(CCOC)CCOC)nc(N3CCC(OC)CC3)c2n1 [Compound 336, 4-(((6-(bis(2-methoxyethyl)amino)-8-(4-methoxypiperidin-1-yl)-4-(4-methyl-3-oxopiperazin-1-yl)pyrimido[5,4-d]pyrimidin-2-yl)(2-methoxyethyl)amino)methyl)-2-fluorobenzoic acid]	< 100 nM
COCCN(Cc1ccc(C(=O)O)c(C)c1)c1nc(N2CCN(C)C(=O)C2)c2nc(N(CCOC)CCOC)nc(N3CCC(OC)CC3)c2n1 [Compound 338, 4-(((6-(bis(2-methoxyethyl)amino)-8-(4-methoxypiperidin-1-yl)-4-(4-methyl-3-oxopiperazin-1-yl)pyrimido[5,4-d]pyrimidin-2-yl)(2-methoxyethyl)amino)methyl)-2-methylbenzoic acid]	< 100 nM

Continued, values first:

IC50	Compound
100 to 500 nM	COCCN(CCOC)c1nc(N2CC(=O)N(C)C(C)(C)C2)c2nc(N(CCO)CCO)nc(N3CCC(OC)CC3)c2n1 [Compound 312, 4-(6-(bis(2-hydroxyethyl)amino)-2-(bis(2-methoxyethyl)amino)-8-(4-methoxypiperidin-1-yl)pyrimido[5,4-d]pyrimidin-4-yl)-1,6,6-trimethylpiperazin-2-one]
500 to 1000 nM	COCCN(CCOC)c1nc(N2CCN(C3CC3)C(=O)C2)c2nc(N(CCO)CCO)nc(N3CCC(OC)CC3)c2n1 [Compound 316, 4-(6-(bis(2-hydroxyethyl)amino)-2-(bis(2-methoxyethyl)amino)-8-(4-methoxypiperidin-1-yl)pyrimido[5,4-d]pyrimidin-4-yl)-1-cyclopropylpiperazin-2-one]
500 to 1000 nM	COCCN(CCOC)c1nc(N2CCN(C)C(=O)C2)c2nc(N(CCOC)CCOC)nc(N(C)C)c2n1 [Compound 320, 4-(2,6-bis(bis(2-methoxyethyl)amino)-8-(dimethylamino)pyrimido[5,4-d]pyrimidin-4-yl)-1-methylpiperazin-2-one]
500 to 1000 nM	COC1CCN(c2nc(N(CCO)CCO)nc3c(N4CCN(C)C(=O)C4)nc(N(CCO)CCO)nc23)CC1 [Compound 321, 4-(2,6-bis(bis(2-hydroxyethyl)amino)-8-(4-methoxypiperidin-1-yl)pyrimido[5,4-d]pyrimidin-4-yl)-1-methylpiperazin-2-one]
100 to 500 nM	COCCN(CCOC)c1nc(N2CCn3nc(C)nc3C2)c2nc(N(CCO)CCO)nc(N3CCC(OC)CC3)c2n1 [Compound 323, 2,2′-((6-(bis(2-methoxyethyl)amino)-4-(4-methoxypiperidin-1-yl)-8-(2-methyl-5,6-dihydro-[1,2,4]triazolo[1,5-a]pyrazin-7(8H)-yl)pyrimido[5,4-d]pyrimidin-2-yl)azanediyl)bis(ethan-1-ol)]
< 100 nM	COCCN(CCOC)c1nc(NCc2cccc(F)c2)c2nc(N(CCO)CCO)nc(N3CCC(OC)CC3)c2n1 [Compound 324, 2,2′-((6-(bis(2-methoxyethyl)amino)-8-((3-lluorobenzyl)amino)-4-(4-methoxypiperidin-1-yl)pyrimido[5,4-d]pyrimidin-2-yl)azanediyl)bis(ethan-1-ol)]
< 100 nM	COCCN(CCOC)c1nc(N2CCC(OC)CC2)c2nc(N(CC(C)O)CC(C)O)nc(N3CCN(C)C(=O)C3)c2n1 (stereo not drawn) [Compound 327, 4-(2-(bis(2-hydroxypropyl)amino)-6-(bis(2-methoxyethyl)amino)-8-(4-methoxypiperidin-1-yl)pyrimido[5,4-d]pyrimidin-4-yl)-1-methylpiperazin-2-one]
100 to 500 nM	COC(C)CN(CC(C)OC)c1nc(N2CCC(OC)CC2)c2nc(N(CCO)CCO)nc(N3CCN(C)C(=O)C3)c2n1 (stereo not drawn) [Compound 328, 4-(2-(bis(2-hydroxyethyl)amino)-6-(bis(2-methoxypropyl)amino)-8-(4-methoxypiperidin-1-yl)pyrimido[5,4-d]pyrimidin-4-yl)-1-methylpiperazin-2-one]
100 to 500 nM	COCCN(Cc1ccc(C(=O)O)c(OC)c1)c1nc(N2CCN(C)C(=O)C2)c2nc(N(CCOC)CCOC)nc(N3CCC(OC)CC3)c2n1 [Compound 337, 4-(((6-(bis(2-methoxyethyl)amino)-8-(4-methoxypiperidin-1-yl)-4-(4-methyl-3-oxopiperazin-1-yl)pyrimido[5,4-d]pyrimidin-2-yl)(2-methoxyethyl)amino)methyl)-2-methoxybenzoic acid]
